Columns and labels:
[1] = target: Estrogen receptor beta (Homo sapiens, UniProt Q92731); conditions: sf9; further: in other assays of this panel Not Active means under 50% inhibition at 10 µM
[2] = target: Beta-2 adrenergic receptor (Homo sapiens, UniProt P07550); test: DRUGMATRIX: Adrenergic beta2 radioligand binding (ligand: [3H] CGP-12177); assay type: cell membranes, CHO, Membrane; conditions: cho; Not Active = under 50% inhibition at 10 µM
[3] = target: Mitogen-activated protein kinase 14 (Homo sapiens, UniProt Q16539); design: species or system Escherichia coli;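 further: inhibition of p38alpha enzyme activity in a biochemical kinase assay, with myelin basic protein serving as substrate; in other assays of this panel Not Active means under 50% inhibition at 10 µM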
[4] = DRUGMATRIX: Phosphodiesterase PDE4 enzyme inhibition (substrate: [3H]cAMP + cAMP); conditions: u-937; Not Active = under 50% inhibition at 10 µM
[5] = target: T1, Neuropeptide Y receptor type 1 (Homo sapiens, UniProt P25929); assay type: cell membranes, Membrane; conditions: sk-n-mc; further: in other assays of this panel Not Active means under 50% inhibition at 10 µM
T1 sequence (P25929 whole entry): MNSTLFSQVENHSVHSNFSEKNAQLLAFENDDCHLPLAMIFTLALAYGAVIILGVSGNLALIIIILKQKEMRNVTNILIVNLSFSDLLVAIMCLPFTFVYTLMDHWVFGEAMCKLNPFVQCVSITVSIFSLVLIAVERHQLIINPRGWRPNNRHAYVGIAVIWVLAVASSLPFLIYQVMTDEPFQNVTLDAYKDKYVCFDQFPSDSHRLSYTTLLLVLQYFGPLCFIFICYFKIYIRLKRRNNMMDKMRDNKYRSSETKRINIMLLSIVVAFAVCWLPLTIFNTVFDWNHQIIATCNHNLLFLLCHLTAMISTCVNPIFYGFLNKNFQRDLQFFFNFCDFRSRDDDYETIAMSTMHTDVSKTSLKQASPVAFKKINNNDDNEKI

[6] = target: T2, Glucocorticoid receptor (Homo sapiens, UniProt P04150); conditions: hela s3; further: in other assays of this panel Not Active means under 50% inhibition at 10 µM
T2 sequence (P04150 whole entry): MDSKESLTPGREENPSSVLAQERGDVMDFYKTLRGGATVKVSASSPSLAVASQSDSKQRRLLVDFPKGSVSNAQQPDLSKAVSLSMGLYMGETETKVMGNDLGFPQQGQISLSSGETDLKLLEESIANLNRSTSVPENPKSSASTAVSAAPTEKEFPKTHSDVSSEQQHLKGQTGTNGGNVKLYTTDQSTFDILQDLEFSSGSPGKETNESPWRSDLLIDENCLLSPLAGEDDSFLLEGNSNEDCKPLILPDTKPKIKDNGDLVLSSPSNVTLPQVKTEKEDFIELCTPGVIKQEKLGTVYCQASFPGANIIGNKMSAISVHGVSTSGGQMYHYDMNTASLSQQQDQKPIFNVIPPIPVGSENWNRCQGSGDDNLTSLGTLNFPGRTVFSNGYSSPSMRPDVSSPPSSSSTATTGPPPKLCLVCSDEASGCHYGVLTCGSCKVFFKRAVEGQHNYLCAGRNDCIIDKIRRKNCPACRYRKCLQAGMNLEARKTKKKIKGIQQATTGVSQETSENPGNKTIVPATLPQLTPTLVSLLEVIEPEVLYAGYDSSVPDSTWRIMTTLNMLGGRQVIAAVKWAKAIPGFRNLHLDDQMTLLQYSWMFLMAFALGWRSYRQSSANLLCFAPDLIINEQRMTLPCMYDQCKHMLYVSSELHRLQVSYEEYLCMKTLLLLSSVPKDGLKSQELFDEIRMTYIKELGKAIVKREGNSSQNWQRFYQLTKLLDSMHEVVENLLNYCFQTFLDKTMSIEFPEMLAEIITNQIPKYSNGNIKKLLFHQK

[7] = DRUGMATRIX: Interleukin IL-1 radioligand binding (ligand: [125I] interleukin 1beta); assay type: cell membranes, Membrane; conditions: nih3t3; Not Active = under 50% inhibition at 10 µM
[8] = target: Carbonic anhydrase 2 (Homo sapiens, UniProt P00918); test: DRUGMATRIX: Carbonic Anhydrase II enzyme inhibition (substrate: 4-Nitrophenyl acetate (4-NPA)); assay type: tissue-based; conditions: erythrocyte; Not Active = under 50% inhibition at 10 µM

Mitogen-activated protein kinase 14, sequence (Q16539 whole entry): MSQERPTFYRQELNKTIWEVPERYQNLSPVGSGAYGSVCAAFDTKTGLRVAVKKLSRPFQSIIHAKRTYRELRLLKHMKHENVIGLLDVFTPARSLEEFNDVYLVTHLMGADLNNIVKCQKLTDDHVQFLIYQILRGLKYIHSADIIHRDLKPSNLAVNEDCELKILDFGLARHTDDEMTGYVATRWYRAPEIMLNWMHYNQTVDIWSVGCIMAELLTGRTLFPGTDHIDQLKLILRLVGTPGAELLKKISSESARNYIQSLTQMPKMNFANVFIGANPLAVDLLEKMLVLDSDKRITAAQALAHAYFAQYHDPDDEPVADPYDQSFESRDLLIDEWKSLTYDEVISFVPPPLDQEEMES
Estrogen receptor beta, sequence (Q92731 whole entry): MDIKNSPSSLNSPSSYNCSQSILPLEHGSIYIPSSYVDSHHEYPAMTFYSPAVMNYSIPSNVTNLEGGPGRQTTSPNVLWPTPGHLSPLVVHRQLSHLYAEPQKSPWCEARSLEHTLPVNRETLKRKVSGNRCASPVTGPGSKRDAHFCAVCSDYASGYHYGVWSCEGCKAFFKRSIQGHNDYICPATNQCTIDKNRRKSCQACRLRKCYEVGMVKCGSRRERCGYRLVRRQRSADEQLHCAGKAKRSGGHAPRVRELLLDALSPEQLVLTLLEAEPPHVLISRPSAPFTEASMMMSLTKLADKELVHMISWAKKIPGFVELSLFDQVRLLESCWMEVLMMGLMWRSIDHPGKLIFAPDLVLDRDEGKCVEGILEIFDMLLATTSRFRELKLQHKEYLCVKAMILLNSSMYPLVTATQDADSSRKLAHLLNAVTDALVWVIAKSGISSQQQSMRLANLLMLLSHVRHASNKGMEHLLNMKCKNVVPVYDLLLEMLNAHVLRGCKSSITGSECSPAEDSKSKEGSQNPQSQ

CC(=O)O[C@H]1C(=O)[C@@]2(C)[C@H]([C@H](OC(=O)c3ccccc3)[C@]3(O)C[C@H](OC(=O)[C@H](O)[C@@H](NC(=O)c4ccccc4)c4ccccc4)C(C)=C1C3(C)C)[C@]1(OC(C)=O)CO[C@@H]1C[C@@H]2O [PACLITAXEL]
Not Active: IC50 [1] | IC50 [2] | IC50 [3] | IC50 [4] | Ki [4] | IC50 [5] | IC50 [6] | IC50 [7] | Ki [7] | IC50 [8]

C[n+]1ccc(-c2cc[n+](C)cc2)cc1.[Cl-].[Cl-] [PARAQUAT DICHLORIDE]
Not Active: IC50 [1] | IC50 [2] | IC50 [3] | IC50 [4] | Ki [4] | IC50 [5] | IC50 [6] | IC50 [7] | Ki [7] | IC50 [8]

CCn1cc(C(=O)O)c(=O)c2cnc(N3CCCC3)nc21 [PIROMIDIC ACID]
Not Active: IC50 [1] | IC50 [2] | IC50 [3] | IC50 [4] | Ki [4] | IC50 [5] | IC50 [6] | IC50 [7] | Ki [7] | IC50 [8]

C[n+]1ccccc1/C=N/O.[Cl-] [PRALIDOXIME CHLORIDE]
Not Active: IC50 [1] | IC50 [2] | IC50 [3] | IC50 [4] | Ki [4] | IC50 [5] | IC50 [6] | IC50 [7] | Ki [7] | IC50 [8]

COc1cc2nc(N3CCN(C(=O)c4ccco4)CC3)nc(N)c2cc1OC [PRAZOSIN]
Not Active: IC50 [1] | IC50 [2] | IC50 [3] | IC50 [4] | Ki [4] | IC50 [5] | IC50 [6] | IC50 [7] | Ki [7] | IC50 [8]

CCCN(CCC)S(=O)(=O)c1ccc(C(=O)O)cc1 [PROBENECID]
Not Active: IC50 [1] | IC50 [2] | IC50 [3] | IC50 [4] | Ki [4] | IC50 [5] | IC50 [6] | IC50 [7] | Ki [7] | IC50 [8]

CCCOc1ccc(C(=O)OCCN(CC)CC)cc1N [PROPARACAINE]
Not Active: IC50 [1] | IC50 [2] | IC50 [3] | IC50 [4] | Ki [4] | IC50 [5] | IC50 [6] | IC50 [7] | Ki [7] | IC50 [8]

C[C@@H]1O[C@@H](O[C@@H]2C=C3CC[C@@H]4[C@H](CC[C@]5(C)[C@@H](c6ccc(=O)oc6)CC[C@]45O)[C@@]3(C)CC2)[C@H](O)[C@H](O)[C@H]1O [PROSCILLARIDIN]
Not Active: IC50 [1] | IC50 [2] | IC50 [3] | IC50 [4] | Ki [4] | IC50 [5] | IC50 [6] | IC50 [7] | Ki [7] | IC50 [8]

Oc1cccc(O)c1O [PYROGALLOL]
Not Active: IC50 [1] | IC50 [2] | IC50 [3] | IC50 [4] | Ki [4] | IC50 [5] | IC50 [6] | IC50 [7] | Ki [7] | IC50 [8]

AURANOFIN
599 nM: Ki [6]
Not Active: IC50 [1] | Ki [1] | IC50 [2] | Ki [2] | IC50 [3] | Ki [3] | IC50 [4] | Ki [4] | IC50 [5] | Ki [5] | IC50 [7] | Ki [7] | IC50 [8] | Ki [8]

GADOPENTETATE DIMEGLUMINE
Not Active: IC50 [1] | Ki [1] | IC50 [2] | Ki [2] | IC50 [3] | Ki [3] | IC50 [4] | Ki [4] | IC50 [5] | Ki [5] | IC50 [6] | Ki [6] | IC50 [7] | Ki [7] | IC50 [8] | Ki [8]

GENTAMICIN
Not Active: IC50 [1] | Ki [1] | IC50 [2] | Ki [2] | IC50 [3] | Ki [3] | IC50 [4] | Ki [4] | IC50 [5] | Ki [5] | IC50 [6] | Ki [6] | IC50 [7] | Ki [7] | IC50 [8] | Ki [8]

GRAMICIDIN
Not Active: IC50 [1] | Ki [1] | IC50 [2] | Ki [2] | IC50 [3] | Ki [3] | IC50 [4] | Ki [4] | IC50 [5] | Ki [5] | IC50 [6] | Ki [6] | IC50 [7] | Ki [7] | IC50 [8] | Ki [8]

NYSTATIN
Not Active: IC50 [1] | Ki [1] | IC50 [2] | Ki [2] | IC50 [3] | Ki [3] | IC50 [4] | Ki [4] | IC50 [5] | Ki [5] | IC50 [6] | Ki [6] | IC50 [7] | Ki [7] | IC50 [8] | Ki [8]

— ChEMBL document CHEMBL1909046, “DrugMatrix in vitro pharmacology data”
